From ChEMBL document CHEMBL5096180, “Pyrimidine-based EGFR TK inhibitors in targeted cancer therapy” (Eur J Med Chem, 2021)
“And” between values parts separate entries of the source, which are not always exact repeats. Identical values can stand only once. Each block holds one compound with its values, some of them ahead of it.

Legend:
[1] = biological target: T1, Epidermal growth factor receptor (Homo sapiens, UniProt P00533); experiment: Inhibition of recombinant C-terminal His-tagged/N-terminal GST-tagged human EGFR expressed in sf9 insect cells using poly(Glu, Tyr) sodium salt (4:1, Glu:Tyr) as a substrate measured after 40 mins by Kinase-Glo reagent based luminescence analysis
T1 sequence (P00533 whole entry): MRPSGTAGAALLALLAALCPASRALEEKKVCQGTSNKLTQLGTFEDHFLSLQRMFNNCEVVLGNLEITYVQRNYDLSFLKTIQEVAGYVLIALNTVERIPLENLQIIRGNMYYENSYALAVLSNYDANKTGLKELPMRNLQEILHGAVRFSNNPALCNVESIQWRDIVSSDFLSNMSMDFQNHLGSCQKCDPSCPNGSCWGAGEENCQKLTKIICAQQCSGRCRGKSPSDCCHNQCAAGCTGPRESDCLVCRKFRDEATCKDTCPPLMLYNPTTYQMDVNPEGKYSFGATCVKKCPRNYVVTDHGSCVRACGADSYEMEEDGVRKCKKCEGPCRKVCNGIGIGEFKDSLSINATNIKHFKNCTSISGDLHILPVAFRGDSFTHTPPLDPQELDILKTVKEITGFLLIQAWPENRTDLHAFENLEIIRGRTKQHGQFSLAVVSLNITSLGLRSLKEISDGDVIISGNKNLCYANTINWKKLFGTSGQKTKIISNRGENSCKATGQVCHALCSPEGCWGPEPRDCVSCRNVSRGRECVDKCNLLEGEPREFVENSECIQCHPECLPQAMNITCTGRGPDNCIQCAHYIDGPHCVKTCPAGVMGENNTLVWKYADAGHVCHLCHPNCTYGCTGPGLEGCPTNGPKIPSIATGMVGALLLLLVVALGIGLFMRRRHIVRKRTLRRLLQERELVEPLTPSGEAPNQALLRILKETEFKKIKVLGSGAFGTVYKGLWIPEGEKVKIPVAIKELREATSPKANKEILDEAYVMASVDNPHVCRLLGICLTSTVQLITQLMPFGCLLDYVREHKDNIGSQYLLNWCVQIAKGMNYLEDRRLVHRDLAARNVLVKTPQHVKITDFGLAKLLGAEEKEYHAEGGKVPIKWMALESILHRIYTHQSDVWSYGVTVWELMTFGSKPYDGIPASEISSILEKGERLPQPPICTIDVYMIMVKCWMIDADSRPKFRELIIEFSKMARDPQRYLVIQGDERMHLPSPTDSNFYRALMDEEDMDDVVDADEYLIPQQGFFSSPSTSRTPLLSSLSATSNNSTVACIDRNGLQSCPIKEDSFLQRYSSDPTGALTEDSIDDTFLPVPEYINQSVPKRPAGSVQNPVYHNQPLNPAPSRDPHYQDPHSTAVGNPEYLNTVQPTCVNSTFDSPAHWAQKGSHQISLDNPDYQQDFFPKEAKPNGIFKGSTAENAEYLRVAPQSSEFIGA

[2] = Inhibition of recombinant N-terminal GST-tagged human HER2 expressed in sf9 insect cells using poly(Glu, Tyr) sodium salt (4:1, Glu:Tyr) as a substrate measured after 40 mins by Kinase-Glo reagent based luminescence analysis
EKVX = experiment: Anticancer activity against human EKVX assessed as cell growth inhibition at 10 uM incubated for 48 hrs relative to control; format: functional; settings: pooled result: one value given for 8 cell lines, strains, targets or settings
[3] = biological target: T2, Tyrosine-protein kinase JAK3 (Homo sapiens) (UniProt P52333); experiment: Inhibition of JAK3 (unknown origin)
T2 sequence (whole entry): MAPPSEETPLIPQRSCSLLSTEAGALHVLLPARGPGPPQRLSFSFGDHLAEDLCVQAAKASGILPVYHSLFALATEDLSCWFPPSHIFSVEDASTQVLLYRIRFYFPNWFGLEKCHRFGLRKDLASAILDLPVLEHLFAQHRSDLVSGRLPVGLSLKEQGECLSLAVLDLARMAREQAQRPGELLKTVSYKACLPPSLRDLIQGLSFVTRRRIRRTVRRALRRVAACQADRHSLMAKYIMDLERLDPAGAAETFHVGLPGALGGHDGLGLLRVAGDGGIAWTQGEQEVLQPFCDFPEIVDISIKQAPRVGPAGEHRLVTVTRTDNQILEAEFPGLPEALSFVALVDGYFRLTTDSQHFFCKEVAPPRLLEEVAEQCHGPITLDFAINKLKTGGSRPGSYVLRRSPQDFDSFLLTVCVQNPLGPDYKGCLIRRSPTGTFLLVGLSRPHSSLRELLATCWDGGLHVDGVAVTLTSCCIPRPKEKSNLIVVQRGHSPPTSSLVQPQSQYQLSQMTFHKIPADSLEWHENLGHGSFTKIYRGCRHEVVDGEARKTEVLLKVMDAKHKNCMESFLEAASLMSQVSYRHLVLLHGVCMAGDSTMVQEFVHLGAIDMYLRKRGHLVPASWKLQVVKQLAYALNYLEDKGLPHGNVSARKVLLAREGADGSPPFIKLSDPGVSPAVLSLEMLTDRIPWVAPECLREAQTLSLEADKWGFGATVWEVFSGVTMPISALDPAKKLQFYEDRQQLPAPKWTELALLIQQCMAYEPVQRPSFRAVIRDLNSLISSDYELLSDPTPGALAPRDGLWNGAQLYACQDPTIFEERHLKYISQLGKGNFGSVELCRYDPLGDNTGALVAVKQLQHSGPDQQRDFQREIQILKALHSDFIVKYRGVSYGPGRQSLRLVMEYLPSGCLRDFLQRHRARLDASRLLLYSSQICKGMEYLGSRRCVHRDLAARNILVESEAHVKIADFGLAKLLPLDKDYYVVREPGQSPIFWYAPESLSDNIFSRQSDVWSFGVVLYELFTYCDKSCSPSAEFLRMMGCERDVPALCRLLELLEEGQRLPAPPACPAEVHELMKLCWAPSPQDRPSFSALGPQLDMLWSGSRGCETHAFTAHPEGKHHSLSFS

NCI-H1975 [4] = experiment: Growth inhibition of human NCI-H1975 cells harbouring EGFR L858R/T790M double mutant; format: functional
[5] = system: Epidermal growth factor receptor (Homo sapiens), P00533 [L858R,T790M]; experiment: Inhibition of EGFR T790M/L858R double mutant (unknown origin) relative to control
Sequence of Epidermal growth factor receptor (Homo sapiens), P00533 [L858R,T790M] (P00533 whole entry T790M/L858R, looked up): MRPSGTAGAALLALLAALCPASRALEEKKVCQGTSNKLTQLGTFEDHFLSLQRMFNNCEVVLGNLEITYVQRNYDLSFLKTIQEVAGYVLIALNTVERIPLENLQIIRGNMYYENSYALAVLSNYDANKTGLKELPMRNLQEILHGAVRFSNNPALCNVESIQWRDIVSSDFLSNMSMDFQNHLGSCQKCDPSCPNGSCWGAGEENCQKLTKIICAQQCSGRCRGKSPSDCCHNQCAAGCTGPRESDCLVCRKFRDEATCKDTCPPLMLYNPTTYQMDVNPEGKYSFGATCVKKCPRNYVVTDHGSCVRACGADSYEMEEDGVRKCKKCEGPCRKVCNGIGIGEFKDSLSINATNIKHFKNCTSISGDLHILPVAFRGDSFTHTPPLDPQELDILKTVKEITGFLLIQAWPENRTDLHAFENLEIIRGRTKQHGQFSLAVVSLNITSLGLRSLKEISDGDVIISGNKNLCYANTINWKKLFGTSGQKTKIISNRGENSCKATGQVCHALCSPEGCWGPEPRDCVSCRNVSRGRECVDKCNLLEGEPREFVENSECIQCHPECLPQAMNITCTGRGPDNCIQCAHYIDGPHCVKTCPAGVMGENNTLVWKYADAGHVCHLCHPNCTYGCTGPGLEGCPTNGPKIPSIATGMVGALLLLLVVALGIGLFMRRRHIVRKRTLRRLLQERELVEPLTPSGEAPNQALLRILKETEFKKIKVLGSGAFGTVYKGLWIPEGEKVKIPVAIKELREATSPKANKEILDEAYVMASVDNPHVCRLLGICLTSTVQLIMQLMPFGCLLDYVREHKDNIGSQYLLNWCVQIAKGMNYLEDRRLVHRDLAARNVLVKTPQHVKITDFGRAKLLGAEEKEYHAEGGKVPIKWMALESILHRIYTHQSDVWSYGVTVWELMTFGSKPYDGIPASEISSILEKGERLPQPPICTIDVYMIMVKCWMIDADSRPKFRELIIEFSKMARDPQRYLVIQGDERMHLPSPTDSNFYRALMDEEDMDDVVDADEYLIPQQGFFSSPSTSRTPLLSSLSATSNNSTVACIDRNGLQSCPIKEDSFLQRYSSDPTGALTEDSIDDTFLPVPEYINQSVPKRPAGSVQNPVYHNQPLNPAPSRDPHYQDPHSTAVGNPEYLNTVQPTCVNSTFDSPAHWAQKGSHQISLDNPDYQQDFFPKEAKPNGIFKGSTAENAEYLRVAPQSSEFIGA

[6] = system: Epidermal growth factor receptor (Homo sapiens), P00533 [L858R]; experiment: Inhibition of EGFR L858R mutant (unknown origin) relative to control; settings: concentration not given here
OVCAR-4 = experiment: Anticancer activity against human OVCAR-4 cells assessed as cell viability incubated for 24 hrs by MTT assay; format: functional, cell-based; settings: OVCAR-4, 24 h
ACHN = experiment: Anticancer activity against human ACHN cells assessed as cell viability incubated for 24 hrs by MTT assay; format: functional, cell-based
[7] = biological target: Receptor tyrosine-protein kinase erbB-2 (Homo sapiens, UniProt P04626); experiment: Inhibition of ErbB2 (unknown origin) pre-incubated for 5 mins followed by substrate addition and measured after 30 mins in presence of ATP by microtitre plate reader analysis
NCI-H460 = experiment: Anticancer activity against human NCI-H460 cells assessed as cell viability incubated for 24 hrs by MTT assay; format: functional, cell-based
NCI-H1975 [8] = experiment: Antiproliferative activity against human NCI-H1975 cells assessed as cell growth inhibition incubated for 72 hrs by MTT assay; format: functional, cell-based; settings: NCI-H1975, 72 h
[9] = biological target: Epidermal growth factor receptor (Homo sapiens, UniProt P00533, L858R/T790M); experiment: Inhibition of EGFR L858R/T790M double mutant (unknown origin) in presence of ATP by ADP-Glo assay
Sequence of Epidermal growth factor receptor (Homo sapiens, UniProt P00533, L858R/T790M) (P00533 25-1210 T790M/L858R limits assumed): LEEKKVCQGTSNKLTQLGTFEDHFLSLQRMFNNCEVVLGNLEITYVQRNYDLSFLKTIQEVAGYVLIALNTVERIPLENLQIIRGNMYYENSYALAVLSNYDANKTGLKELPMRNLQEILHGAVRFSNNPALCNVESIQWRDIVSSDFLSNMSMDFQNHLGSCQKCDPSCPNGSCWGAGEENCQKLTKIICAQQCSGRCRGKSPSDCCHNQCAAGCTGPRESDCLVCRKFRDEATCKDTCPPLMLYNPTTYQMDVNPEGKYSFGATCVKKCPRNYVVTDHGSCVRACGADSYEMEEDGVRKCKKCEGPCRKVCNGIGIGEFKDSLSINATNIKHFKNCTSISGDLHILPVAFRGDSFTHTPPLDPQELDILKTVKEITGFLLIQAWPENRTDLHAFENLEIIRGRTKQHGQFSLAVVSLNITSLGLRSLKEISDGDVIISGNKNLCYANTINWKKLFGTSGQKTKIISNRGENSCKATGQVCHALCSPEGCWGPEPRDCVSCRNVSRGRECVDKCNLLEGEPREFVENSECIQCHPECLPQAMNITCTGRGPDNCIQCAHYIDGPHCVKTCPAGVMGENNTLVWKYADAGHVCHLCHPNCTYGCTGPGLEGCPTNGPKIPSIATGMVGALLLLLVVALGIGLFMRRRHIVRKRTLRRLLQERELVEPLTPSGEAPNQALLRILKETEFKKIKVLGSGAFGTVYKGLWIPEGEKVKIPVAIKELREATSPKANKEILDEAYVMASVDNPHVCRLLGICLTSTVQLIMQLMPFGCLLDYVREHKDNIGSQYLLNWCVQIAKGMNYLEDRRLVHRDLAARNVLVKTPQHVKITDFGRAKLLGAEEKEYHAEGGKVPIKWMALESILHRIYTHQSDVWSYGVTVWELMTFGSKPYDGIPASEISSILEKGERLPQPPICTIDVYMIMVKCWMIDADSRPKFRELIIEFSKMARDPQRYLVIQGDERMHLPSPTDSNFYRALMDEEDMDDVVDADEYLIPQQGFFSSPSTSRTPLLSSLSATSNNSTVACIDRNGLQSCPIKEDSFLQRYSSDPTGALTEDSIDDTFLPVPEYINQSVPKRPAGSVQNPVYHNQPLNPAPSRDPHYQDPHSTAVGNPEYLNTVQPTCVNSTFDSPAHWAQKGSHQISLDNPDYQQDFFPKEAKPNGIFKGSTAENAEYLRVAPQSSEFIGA

HCC827 = experiment: Antiproliferative activity against human HCC827 assessed as cell growth inhibition; format: functional, cell-based
NCI-H1975 [10] = experiment: Antiproliferative activity against human NCI-H1975 assessed as cell growth inhibition; format: functional, cell-based
[11] = biological target: Epidermal growth factor receptor (Homo sapiens, UniProt P00533, T790M); experiment: Inhibition of EGFR T790M mutant (unknown origin)
Sequence of Epidermal growth factor receptor (Homo sapiens, UniProt P00533, T790M) (P00533 25-1210 T790M limits assumed): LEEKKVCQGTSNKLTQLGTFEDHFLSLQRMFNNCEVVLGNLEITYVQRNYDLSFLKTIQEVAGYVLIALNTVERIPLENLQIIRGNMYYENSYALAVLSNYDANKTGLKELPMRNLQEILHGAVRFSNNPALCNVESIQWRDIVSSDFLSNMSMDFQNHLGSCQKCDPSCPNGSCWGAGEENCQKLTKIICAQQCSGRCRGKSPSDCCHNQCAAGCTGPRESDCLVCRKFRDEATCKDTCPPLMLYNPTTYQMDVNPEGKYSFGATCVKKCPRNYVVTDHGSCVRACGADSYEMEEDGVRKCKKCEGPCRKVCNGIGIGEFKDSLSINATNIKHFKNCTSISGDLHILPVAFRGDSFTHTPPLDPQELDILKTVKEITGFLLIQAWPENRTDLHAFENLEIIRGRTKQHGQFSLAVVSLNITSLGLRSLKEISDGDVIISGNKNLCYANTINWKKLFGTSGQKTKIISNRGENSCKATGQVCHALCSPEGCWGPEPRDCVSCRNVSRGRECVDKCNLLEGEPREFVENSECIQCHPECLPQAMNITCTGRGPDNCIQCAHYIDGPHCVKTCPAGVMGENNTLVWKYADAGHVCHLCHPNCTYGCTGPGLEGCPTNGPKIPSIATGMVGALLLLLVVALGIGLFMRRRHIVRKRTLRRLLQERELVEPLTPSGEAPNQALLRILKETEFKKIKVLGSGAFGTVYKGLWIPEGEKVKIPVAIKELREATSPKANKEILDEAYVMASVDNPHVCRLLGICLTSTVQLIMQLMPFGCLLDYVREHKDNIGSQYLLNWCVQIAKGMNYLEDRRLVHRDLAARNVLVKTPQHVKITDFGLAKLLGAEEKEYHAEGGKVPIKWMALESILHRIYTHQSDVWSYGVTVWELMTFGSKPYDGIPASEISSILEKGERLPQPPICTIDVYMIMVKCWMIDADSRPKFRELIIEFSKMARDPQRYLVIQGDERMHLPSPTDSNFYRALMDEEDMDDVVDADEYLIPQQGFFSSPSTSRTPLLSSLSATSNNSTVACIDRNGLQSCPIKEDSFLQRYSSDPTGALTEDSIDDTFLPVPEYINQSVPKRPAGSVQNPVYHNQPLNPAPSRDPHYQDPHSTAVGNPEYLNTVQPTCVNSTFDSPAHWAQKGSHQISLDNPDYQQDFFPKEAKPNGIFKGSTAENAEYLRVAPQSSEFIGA

BaF3 [12] = experiment: Antiproliferative activity against mouse BAF3 cells harboring EGFR L858R/T790M/C797S triple mutant; format: functional, cell-based
BaF3 [13] = experiment: Antiproliferative activity against mouse BAF3 cells harboring EGFR 19D/T790M/C797S triple mutant; format: functional, cell-based
MCF7 [14] = experiment: Potency index,ratio of test compound IC50 to Doxorubicin IC50 for antiproliferative activity against human MCF7 cells incubated for 48 hrs by MTT assay; format: functional
MCF7 [15] = experiment: Anticancer activity against human MCF7 cells incubated for 48 hrs by MTT assay; format: functional, cell-based; settings: MCF7, 48 h
MCF7 [16] = experiment: Potency index,ratio of test compound IC50 to Erlotinib IC50 for antiproliferative activity against human MCF7 cells incubated for 48 hrs by MTT assay; format: functional
[17] = biological target: T1, Epidermal growth factor receptor; experiment: Inhibition of recombinant EGFR (unknown origin) using TMB as substrate incubated for 3 hrs in presence of ATP by ELISA
HepG2 = experiment: Anticancer activity against human HepG2 cells; format: functional, cell-based
[18] = biological target: T1, Epidermal growth factor receptor; experiment: Inhibition of EGFR (unknown origin) at 50 uM relative to control
HCT-116 = experiment: Anticancer activity against human HCT-116 cells; format: functional, cell-based
[19] = biological target: T1, Epidermal growth factor receptor; experiment: Inhibition of EGFR (unknown origin) at 100 uM relative to control
PC-3 = experiment: Anticancer activity against human PC-3 cells; format: functional, cell-based
[20] = biological target: Epidermal growth factor receptor (Homo sapiens, UniProt P00533, C797S/L858R/T790M); experiment: Inhibition of EGFR L858R/T790M/C797S triple mutant (unknown origin)

SMILES: Fc1cccc(COc2ccc(Nc3ncnc4sc5c(c34)CCCC5)cc2Cl)c1
IC50 [1]: 200 nM | IC50 [2]: 500 nM | inhibition at 10 µM (EKVX): 42%

SMILES: CC#CC1=Nc2cc(Nc3nccc(-c4cn(C)c5ccccc45)n3)ccc2C(C)(C)O1
IC50 [3]: 60 nM

SMILES: CCOC(=O)c1cnc(NC(N)=S)[nH]c1=O
inhibition [5]: 62% | inhibition [6]: 62%

SMILES: Cc1nn(-c2ccc(F)cc2)c2c(Nc3ccc(F)c(Cl)c3)ncnc12
IC50 (OVCAR-4): 1740 nM | IC50 (ACHN): 5530 nM | IC50 [7]: 250 nM | IC50 (NCI-H460): 1740 nM and 4440 nM

SMILES: CN(C)C1CCN(c2ccc(Nc3cc4c(N5CCC(CO)CC5)nc(Nc5ccc(F)cc5)nc4cn3)nc2)CC1
IC50 (HCC827): 40 nM | IC50 (NCI-H1975 [10]): 40 nM

SMILES: CC#CC(=O)Nc1ccc(Nc2nccc(-c3cn(C)c4ccccc34)n2)cc1
IC50 [11]: 220 nM

SMILES: CCC(=O)NC1CCC(N2C(=O)N(c3ccccc3Cl)Cc3cnc(Nc4ccc(N5CCN(C)CC5)c(C)c4)nc32)CC1 (centres undefined)
IC50 (BaF3 [12]): 290 nM | IC50 (BaF3 [13]): 310 nM

SMILES: C=CC(=O)Nc1cccc(Oc2nc(Nc3ccc(OC)cc3)nc3c2CSCC3)c1
Ratio IC50 (MCF7 [14]): 4.64 | IC50 (MCF7 [15]): 660 nM | Ratio IC50 (MCF7 [16]): 1.73 | IC50 [17]: 28 nM

SMILES: Cc1ccc(-c2cc(-c3ccc(Cl)cc3)nc3nc(-n4[nH]c(C)cc4=O)[nH]c(=O)c23)cc1
IC50 (HepG2): 300 nM | inhibition [18]: 81% | IC50 (HCT-116): 7000 nM | inhibition [19]: 86% | IC50 (PC-3): 6600 nM

SMILES: CCOC(=O)c1cnc(NC(N)=S)nc1C
inhibition [5]: 62% | inhibition [6]: 62%

SMILES: C=CC(=O)Nc1ccc(Nc2nccc(-c3cn(C)c4ccccc34)n2)cc1
IC50 [11]: 180 nM

Next, values leading:

GI50 (NCI-H1975 [4]): 210 nM
SMILES: C=CC(=O)N1CCCC(n2nc(-c3cn(C)c4ccccc34)c3c(N)ncnc32)C1 (centres undefined)

GI50 (NCI-H1975 [4]): 490 nM
SMILES: C=CC(=O)N1CCCC(n2nc(-c3cccc4ccccc34)c3c(N)ncnc32)C1 (centres undefined)

IC50 (NCI-H1975 [8]): 74 nM | IC50 [9]: 27.5 nM
SMILES: C=CC(=O)Nc1cccc(Nc2nc(Nc3ccc(SCCCN4CCOCC4)cc3)ncc2Cl)c1

IC50 [9]: 9.1 nM
SMILES: C=CC(=O)Nc1cccc(Nc2nc(Nc3ccc(SCC(=O)N4CCOCC4)cc3)ncc2Cl)c1

IC50 [20]: 88 nM | GI50 (NCI-H1975 [4]): 140 nM
SMILES: C=CC(=O)N1CCCC(n2nc(-c3ccc4ccccc4c3)c3c(N)ncnc32)C1 (centres undefined)
